Measured values reported in PubChem BioAssay (NCI).
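Dose response: 5 concentrations. Exposure: 48 h. Format: 96-well plates. Endpoint: linear interpolation; highest concentration if not reached. TGI is the concentration that stops growth completely.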

What was measured:
Assay in all cases: DTP human tumour cell line panel, 48 h
786-0 renal = tested on: 786-0 renal
A498 renal = tested on: A498 renal
A549 NSCLC = tested on: A549 NSCLC
ACHN renal = tested on: ACHN renal
BT-549 breast = tested on: BT-549 breast
CAKI-1 renal = tested on: CAKI-1 renal
CCRF-CEM leukemia = tested on: CCRF-CEM leukemia
COLO 205 colon = tested on: COLO 205 colon
DU-145 prostate = tested on: DU-145 prostate
EKVX NSCLC = tested on: EKVX NSCLC
HCC-2998 colon = tested on: HCC-2998 colon
HCT-116 colon = tested on: HCT-116 colon
HCT-15 colon = tested on: HCT-15 colon
HL-60(TB) leukemia = tested on: HL-60(TB) leukemia
HOP-62 NSCLC = tested on: HOP-62 NSCLC
HOP-92 NSCLC = tested on: HOP-92 NSCLC
HS 578T breast = tested on: HS 578T breast
HT29 colon = tested on: HT29 colon
IGROV1 ovarian = tested on: IGROV1 ovarian
K-562 leukemia = tested on: K-562 leukemia
KM12 colon = tested on: KM12 colon
LOX IMVI melanoma = tested on: LOX IMVI melanoma
M14 melanoma = tested on: M14 melanoma
MCF7 breast = tested on: MCF7 breast
MDA-MB-231 breast = tested on: MDA-MB-231 breast
MDA-MB-435 = tested on: MDA-MB-435
MDA-N = tested on: MDA-N
MOLT-4 leukemia = tested on: MOLT-4 leukemia
NCI-H226 lung = tested on: NCI-H226 lung
NCI-H23 lung = tested on: NCI-H23 lung
NCI-H460 lung = tested on: NCI-H460 lung
NCI-H522 lung = tested on: NCI-H522 lung
NCI/ADR-RES ovarian = tested on: NCI/ADR-RES ovarian
OVCAR-3 ovarian = tested on: OVCAR-3 ovarian
OVCAR-4 ovarian = tested on: OVCAR-4 ovarian
OVCAR-5 ovarian = tested on: OVCAR-5 ovarian
OVCAR-8 ovarian = tested on: OVCAR-8 ovarian
PC-3 prostate = tested on: PC-3 prostate
RPMI-8226 leukemia = tested on: RPMI-8226 leukemia
RXF 393 renal = tested on: RXF 393 renal
SF-268 CNS = tested on: SF-268 CNS
SF-295 CNS = tested on: SF-295 CNS
SF-539 CNS = tested on: SF-539 CNS
SK-MEL-2 melanoma = tested on: SK-MEL-2 melanoma
SK-MEL-5 melanoma = tested on: SK-MEL-5 melanoma
SN12C renal = tested on: SN12C renal
SNB-19 CNS = tested on: SNB-19 CNS
SNB-75 CNS = tested on: SNB-75 CNS
SR leukemia = tested on: SR leukemia
SW-620 colon = tested on: SW-620 colon
T-47D breast = tested on: T-47D breast
TK-10 renal = tested on: TK-10 renal
U251 CNS = tested on: U251 CNS
UACC-257 melanoma = tested on: UACC-257 melanoma
UACC-62 melanoma = tested on: UACC-62 melanoma
UO-31 renal = tested on: UO-31 renal
MALME-3M melanoma = tested on: MALME-3M melanoma
SK-MEL-28 melanoma = tested on: SK-MEL-28 melanoma
SK-OV-3 ovarian = tested on: SK-OV-3 ovarian

`O=C(O)CN1CCN(CC(=O)O)CCN(CC(=O)O)CCN(CC(=O)O)CC1` gave a TGI (786-0 renal) of over 100 µM, a TGI (A498 renal) of over 100 µM and a TGI (A549 NSCLC) of over 100 µM. It also gave a TGI (ACHN renal) of over 100 µM, a TGI (BT-549 breast) of over 100 µM and a TGI (CAKI-1 renal) of over 100 µM. For the same compound, the TGI (CCRF-CEM leukemia) was over 100 µM, the TGI (COLO 205 colon) was over 100 µM and the TGI (DU-145 prostate) was over 100 µM. The TGI (EKVX NSCLC) was over 100 µM, the TGI (HCC-2998 colon) was over 100 µM and the TGI (HCT-116 colon) was over 100 µM. The TGI (HCT-15 colon) was over 100 µM, the TGI (HL-60(TB) leukemia) was over 100 µM and the TGI (HOP-62 NSCLC) was over 100 µM. It also gave a TGI (HOP-92 NSCLC) of over 100 µM, a TGI (HS 578T breast) of over 100 µM and a TGI (HT29 colon) of over 100 µM. For the same compound, the TGI (IGROV1 ovarian) was over 100 µM, the TGI (K-562 leukemia) was over 100 µM and the TGI (KM12 colon) was over 100 µM. The TGI (LOX IMVI melanoma) was over 100 µM, the TGI (M14 melanoma) was over 100 µM and the TGI (MCF7 breast) was over 100 µM. For the same compound, the TGI (MDA-MB-231 breast) was over 100 µM, the TGI (MDA-MB-435) was over 100 µM and the TGI (MDA-N) was over 100 µM. It also gave a TGI (MOLT-4 leukemia) of over 100 µM, a TGI (NCI-H226 lung) of over 100 µM and a TGI (NCI-H23 lung) of over 100 µM. It also gave a TGI (NCI-H460 lung) of over 100 µM, a TGI (NCI-H522 lung) of over 100 µM and a TGI (NCI/ADR-RES ovarian) of over 100 µM. The TGI (OVCAR-3 ovarian) was over 100 µM, the TGI (OVCAR-4 ovarian) was over 100 µM and the TGI (OVCAR-5 ovarian) was over 100 µM. It also gave a TGI (OVCAR-8 ovarian) of over 100 µM, a TGI (PC-3 prostate) of over 100 µM and a TGI (RPMI-8226 leukemia) of over 100 µM. It also gave a TGI (RXF 393 renal) of over 100 µM, a TGI (SF-268 CNS) of over 100 µM and a TGI (SF-295 CNS) of over 100 µM. The TGI (SF-539 CNS) was over 100 µM, the TGI (SK-MEL-2 melanoma) was over 100 µM and the TGI (SK-MEL-5 melanoma) was over 100 µM. It also gave a TGI (SN12C renal) of over 100 µM, a TGI (SNB-19 CNS) of over 100 µM and a TGI (SNB-75 CNS) of over 100 µM. The TGI (SR leukemia) was over 100 µM, the TGI (SW-620 colon) was over 100 µM and the TGI (T-47D breast) was over 100 µM. The TGI (TK-10 renal) was over 100 µM, the TGI (U251 CNS) was over 100 µM and the TGI (UACC-257 melanoma) was over 100 µM. It also gave a TGI (UACC-62 melanoma) of over 100 µM and a TGI (UO-31 renal) of over 100 µM.
For `O=C(/C=C/c1ccc(O)cc1)NCCc1ccc(O)cc1`, the TGI (786-0 renal) was over 12.5 µM, the TGI (A498 renal) was over 12.5 µM and the TGI (A549 NSCLC) was over 12.5 µM. For the same compound, the TGI (ACHN renal) was over 12.5 µM, the TGI (BT-549 breast) was over 12.5 µM and the TGI (CAKI-1 renal) was over 12.5 µM. For the same compound, the TGI (CCRF-CEM leukemia) was 11.4 µM, the TGI (COLO 205 colon) was over 12.5 µM and the TGI (DU-145 prostate) was over 12.5 µM. For the same compound, the TGI (EKVX NSCLC) was over 12.5 µM, the TGI (HCT-116 colon) was over 12.5 µM and the TGI (HCT-15 colon) was over 12.5 µM. It also gave a TGI (HL-60(TB) leukemia) of over 12.5 µM, a TGI (HOP-62 NSCLC) of over 12.5 µM and a TGI (HOP-92 NSCLC) of over 12.5 µM. It also gave a TGI (HS 578T breast) of over 12.5 µM, a TGI (HT29 colon) of over 12.5 µM and a TGI (IGROV1 ovarian) of over 12.5 µM. For the same compound, the TGI (K-562 leukemia) was over 12.5 µM, the TGI (KM12 colon) was over 12.5 µM and the TGI (LOX IMVI melanoma) was over 12.5 µM. The TGI (M14 melanoma) was over 12.5 µM, the TGI (MALME-3M melanoma) was over 12.5 µM and the TGI (MCF7 breast) was over 12.5 µM. For the same compound, the TGI (MDA-MB-231 breast) was over 12.5 µM, the TGI (MDA-MB-435) was over 12.5 µM and the TGI (MDA-N) was over 12.5 µM. For the same compound, the TGI (NCI-H226 lung) was over 12.5 µM, the TGI (NCI-H23 lung) was over 12.5 µM and the TGI (NCI-H460 lung) was over 12.5 µM. It also gave a TGI (NCI-H522 lung) of over 12.5 µM, a TGI (NCI/ADR-RES ovarian) of over 12.5 µM and a TGI (OVCAR-3 ovarian) of over 12.5 µM. It also gave a TGI (OVCAR-4 ovarian) of over 12.5 µM, a TGI (OVCAR-5 ovarian) of over 12.5 µM and a TGI (OVCAR-8 ovarian) of over 12.5 µM. The TGI (PC-3 prostate) was over 12.5 µM, the TGI (RPMI-8226 leukemia) was over 12.5 µM and the TGI (RXF 393 renal) was over 12.5 µM. It also gave a TGI (SF-268 CNS) of over 12.5 µM, a TGI (SF-295 CNS) of over 12.5 µM and a TGI (SF-539 CNS) of 11.1 µM. For the same compound, the TGI (SK-MEL-2 melanoma) was over 12.5 µM, the TGI (SK-MEL-28 melanoma) was over 12.5 µM and the TGI (SK-MEL-5 melanoma) was over 12.5 µM. For the same compound, the TGI (SN12C renal) was over 12.5 µM, the TGI (SNB-19 CNS) was over 12.5 µM and the TGI (SR leukemia) was over 12.5 µM. It also gave a TGI (SW-620 colon) of over 12.5 µM, a TGI (T-47D breast) of over 12.5 µM and a TGI (TK-10 renal) of over 12.5 µM. For the same compound, the TGI (U251 CNS) was over 12.5 µM, the TGI (UACC-257 melanoma) was over 12.5 µM and the TGI (UACC-62 melanoma) was over 12.5 µM. It also gave a TGI (UO-31 renal) of over 12.5 µM.
Work on `O=c1c2cccnc2nc2ccc3c[nH][nH]c3c12` yielded a TGI (786-0 renal) of over 10 µM, a TGI (A498 renal) of over 10 µM and a TGI (A549 NSCLC) of over 10 µM. It also gave a TGI (ACHN renal) of over 10 µM, a TGI (BT-549 breast) of over 10 µM and a TGI (CAKI-1 renal) of over 10 µM. For the same compound, the TGI (CCRF-CEM leukemia) was over 10 µM, the TGI (COLO 205 colon) was over 10 µM and the TGI (DU-145 prostate) was over 10 µM. It also gave a TGI (EKVX NSCLC) of over 10 µM, a TGI (HCC-2998 colon) of over 10 µM and a TGI (HCT-116 colon) of over 10 µM. For the same compound, the TGI (HCT-15 colon) was over 10 µM, the TGI (HL-60(TB) leukemia) was over 10 µM and the TGI (HOP-62 NSCLC) was over 10 µM. The TGI (HOP-92 NSCLC) was over 10 µM, the TGI (HS 578T breast) was over 10 µM and the TGI (HT29 colon) was over 10 µM. It also gave a TGI (IGROV1 ovarian) of over 10 µM, a TGI (K-562 leukemia) of over 10 µM and a TGI (KM12 colon) of over 10 µM. For the same compound, the TGI (LOX IMVI melanoma) was over 10 µM, the TGI (M14 melanoma) was over 10 µM and the TGI (MALME-3M melanoma) was over 10 µM. The TGI (MCF7 breast) was over 10 µM, the TGI (MDA-MB-231 breast) was over 10 µM and the TGI (MDA-MB-435) was over 10 µM. The TGI (MDA-N) was over 10 µM, the TGI (MOLT-4 leukemia) was over 10 µM and the TGI (NCI-H226 lung) was over 10 µM. For the same compound, the TGI (NCI-H23 lung) was over 10 µM, the TGI (NCI-H460 lung) was over 10 µM and the TGI (NCI-H522 lung) was over 10 µM. For the same compound, the TGI (NCI/ADR-RES ovarian) was over 10 µM, the TGI (OVCAR-3 ovarian) was over 10 µM and the TGI (OVCAR-4 ovarian) was over 10 µM. For the same compound, the TGI (OVCAR-5 ovarian) was over 10 µM, the TGI (OVCAR-8 ovarian) was over 10 µM and the TGI (PC-3 prostate) was over 10 µM. It also gave a TGI (RPMI-8226 leukemia) of over 10 µM, a TGI (RXF 393 renal) of over 10 µM and a TGI (SF-268 CNS) of over 10 µM. The TGI (SF-295 CNS) was over 10 µM, the TGI (SF-539 CNS) was over 10 µM and the TGI (SK-MEL-2 melanoma) was over 10 µM. It also gave a TGI (SK-MEL-28 melanoma) of over 10 µM, a TGI (SK-MEL-5 melanoma) of over 10 µM and a TGI (SK-OV-3 ovarian) of over 10 µM. The TGI (SN12C renal) was over 10 µM, the TGI (SNB-19 CNS) was over 10 µM and the TGI (SNB-75 CNS) was over 10 µM. The TGI (SR leukemia) was 9.14 µM, the TGI (SW-620 colon) was over 10 µM and the TGI (T-47D breast) was over 10 µM. The TGI (TK-10 renal) was over 10 µM, the TGI (U251 CNS) was over 10 µM and the TGI (UACC-257 melanoma) was over 10 µM. It also gave a TGI (UACC-62 melanoma) of over 10 µM.
